Measurements reported in ChEMBL document CHEMBL1150146, “New terpenoids from the brown alga Stypopodium zonale” (J Nat Prod, 2002).
Values after ≈ are worked out from the molar mass of the structure shown.

What was measured:
Format in all cases: functional, cell-based
[1] = Cytotoxicity against human H116 cells
HT-29 = test: Cytotoxicity against human HT-29 cells
A549 = test: Cytotoxicity against human A549 cells

Which IC50 [1] does the source give for COC(=O)CC[C@@H]1C(=C(C)C)CC[C@H]2[C@@]1(C)CC[C@H](C)[C@]2(C)Cc1cc(O)cc(C)c1O here?
Its IC50 is 2.5 µg/mL (≈ 5.65 µM).

And the IC50 (HT-29)?
The IC50 was under 2.5 µg/mL.

What about the IC50 (A549) of the same molecule?
Its IC50 is 2.5 µg/mL (≈ 5.65 µM).
